Results from patent US10745434B2, “Uridine phosphoramide prodrug, preparation method therefor, and medicinal uses thereof” (priority 2016, dated 2020).
Where two headings read alike, the source gives them in different places.

Columns and labels:
[1] = Simulated gastric liquid stability; type: in vitro ADME; conditions: test concentration 10 μM
Human liver S9 stability = type: in vitro ADME; conditions: human liver S9, test concentration 1 μM
Description: 4. Human Liver S9 Stability Parameters (Test Concentration: 1 μM), See Table 5.

HCV GT1b replicons = assay: Anti-HCV replicon activity, HCV GT1b stable transfection replicon cell line (luciferase); type: cell-based, hepatitis C virus (HCV) genotype (GT) 1b
Description: (§1) A hepatitis C virus (HCV) genotype (GT) 1b stable transfection replicon cell line system was used to determine the inhibitory activity of the compounds to the HCV GT1b replicons. In this experiment, the compound 06a (GS-7977) was used as a control compound to monitor the experimental quality.
(§2) [drawing 4] 2. Compound dilution: 20 mM mother liquor was prepared by using 100% DMSO, and the compound DMSO mother liquor was diluted and added to a 96-well experiment plate. The final concentration of the DMSO was 0.5%. In in-vitro anti-HCV activity experiments and cytotoxicity experiments, all compounds had the initial concentration of 20 microns, and were diluted by 5 times of dilution. The final concentration of the DMSO of 6 concentrations were 0.5%. 3. Cell treatment: HCV-1b replicon sub-cells were added to the above 96-well cell plate (8,000 cells/well), and then placed into an incubator of 37 DEG C. and 5% CO2 for culturing for 3 days. 4. Cell activity detection: a cell growth fluorescent titration detection reagent was added to each well; after the cells were cultured for 1 hour in the incubator of 37 DEG C. and 5% CO2, a spectrophotometer detection system Envision was used to detect a Fluorescence signal value. The original data, i.e, relative fluorescence units (RFUs), was used for the calculation of the cell toxicity of the compounds. 5. Anti-HCV replicon activity detection: a luciferase light-emitting substrate bright-GLO was added to each well, and a chemiluminescence detection system Envision was used for detecting a Luminescence signal value in 5 minutes. The original data, i.e., relative light units (RLUs), was used for the calculation of the inhibitory activity of the compounds. 6. Data processing: the RFUs obtained in step 1.3 were processed into a cell activity percentage by using the following formula: […]
The RLUs obtained in step 1.4 were processed into a inhibition percentage by using the following formula:
[formula] *CPD: signal values of compound wells HPE (high percent effect): 100% effective action control well signal value, with only DMEM culture solution in the wells; The ZPE (zero percent effect): noneffective control well signal value, with 0.5% DMSO to replace the compound.
(§3) The cell activity percentage and the inhibition percentage were respectively imported into GraphPad Prism software for data processing to obtain curves corresponding to the compounds and their values of cytotoxicity (CC50) and inhibitory activity (ECD50) to the HCV replicons.

Human plasma stability = type: in vitro ADME; conditions: test concentration 2 μM
Description: 3. Human Plasma Stability (Test Concentration: 2 μM), See Table 4.

[2] = tested on: HCV-1b replicon sub-cells; assay: Cytotoxicity in HCV-1b replicon cells (cell growth fluorescent titration); type: cell-based; conditions: HCV GT1b replicon cells, 3 days
Description: as §1, §2, §3

[3] = Simulated intestinal fluid stability; type: in vitro ADME; conditions: test concentration 10 μM
Description: 2. Simulated Intestinal Fluid Stability (Test Concentration: 10 μM), See Table 3: […]

[4] = Rat in-vivo metabolism and tissue distribution: metabolite TSL1100 in liver after intragastric administration; design: species or system SD rats; conditions: rat PO 50 mg/kg
Description: 18 SD rats (male, 6-9 weeks old, purchased from Vital River Animal center) were divided into 6 groups randomly, 3 rats in each group, fasted for 12 hours first before administration, freely fed with water during the fasting period. After the administration is carried out for 4 hours, the fasting was ended. 50 mg compound was precisely weighed on a balance, and 95% (0.5% of cd))/5% solutol aqueous solution was added and uniformly mixed, and subjected to ultrasonic treatment for later use. The drug delivery dose was 50 mg/kg; the drug delivery concentration was […]; and the drug delivery volume was […].
The sample collection scheme: taking blood and liver tissues after carrying out intragastric administration on rats for 1 h, 2 h, 3 h, 6 h, 12 h and 24 h.
The liver tissue sample treatment method: taking a rat tissue sample in a plastic EP tube, and adding 5 times (w:v) 1.75 mL MeOH and 5 μL 50% KOH aqueous solution together with 0.75 mL 268 mM EDTA solution to prepare a solution, uniformly mixing and taking 60 μL sample, adding a 240 μL internal standard solution for mixing, carrying out vortex oscillation for 2 minutes, and centrifuging for 10 minutes (13000 rpm and 4 DEG C.), taking 30 μL of supernate, adding 30 μL of water, carrying out vortex mixing, centrifuging at 4 DEG C., and then taking 5 μL supernate for […] analysis.
LC-MS/MS-O (API 4000) liquid mass spectrometer and chromatographic column are adopted: ACQUITY UPLC BEH C18 130 Å 1.7 μm 2.1×50 mm the composition com: and tomitamide was adopted as an internal standard compound, gradient elution analysis is carried out after the sample is fed into the sample, and the internal standard is recorded respectively, the retention time and the peak area of the to-be-tested compound and the metabolite TSL 1100, the software phoenix winnonlin 6.2. The method is analyzed by an srms quantitative detection method.

[5] = Cytotoxicity in HCV-1b replicon cells (cell growth fluorescent titration); type: cell-based; conditions: HCV genotype 1b stably transfected replicon cells, HCV GT1b replicon cells
Description: as §1, §2, §3

[6] = HCV GT1b replicons, 3 days, maximum test concentration 20 μM, read-out: EC50 anti-HCV replicon activity

Row | SMILES | CLlint(s9) (Human liver S9 stability) | Remaining % (NCF = 1 h) (Human liver S9 stability) | Remaining % (T = 1 h) (Human liver S9 stability) | CLlint(s9) (Human liver S9 stability; scaled per kg) | EC50 (HCV GT1b replicons; [6]) | CC50 [2] | % 0 h residual percentage [3] | % 1 h residual percentage [3] | % 2 h residual percentage [3] | % 6 h residual percentage [3] | % 24 h residual percentage [3] | half-life at 1 μM (Human liver S9 stability) | other results
1 | CC(C)OC(=O)C(C)NP(=O)(OCc1ccccc1)OCC1OC(n2ccc(=O)[nH]c2=O)C(C)(F)C1O (mixture of isomers) [Compound 01] | 7.2 µL/min/mg | 67.4% | 56.2% | 0.0252 mL/min/kg | 6.12 µM | > 20 µM | 100% | 1.69% | 0.08% | 0.00% | 0.00% |  | % 0 h residual percentage [1]: 100%; % 1 h residual percentage [1]: 96.81%; % 2 h residual percentage [1]: 105.99%; % 6 h residual percentage [1]: 100.76%; % 24 h residual percentage [1]: 71.32%; T1/2 (Human liver S9 stability): 96.6 min; % 0 min residual percentage (Human plasma stability): 100%; % 10 min residual percentage (Human plasma stability): 98.9%; % 30 min residual percentage (Human plasma stability): 81.7%; % 60 min residual percentage (Human plasma stability): 80.9%; % 120 min residual percentage (Human plasma stability): 74.9%
2 | CC(C)OC(=O)[C@H](C)NP(=O)(OCc1ccccc1)OC[C@H]1O[C@@H](n2ccc(=O)[nH]c2=O)[C@](C)(F)[C@@H]1O (single isomer, unassigned) [Compound 01a] |  |  |  |  | 0.301 µM | > 20 µM |  |  |  |  |  |  | AUCExtra [4]: 4.74%; AUMCExtra [4]: 18.9%; Tlast [4]: 24.0 h
3 | CC(C)OC(=O)[C@H](C)NP(=O)(OCc1ccccc1)OC[C@H]1O[C@@H](n2ccc(=O)[nH]c2=O)[C@](C)(F)[C@@H]1O (single isomer, unassigned) [Compound 01b] |  |  |  |  | 9.15 µM | > 20 µM |  |  |  |  |  |  | AUCExtra [4]: 6.61%; AUMCExtra [4]: 19.8%; Tlast [4]: 12.0 h
4 | Cc1ccccc1COP(=O)(N[C@@H](C)C(=O)OC(C)C)OC[C@H]1O[C@@H](n2ccc(=O)[nH]c2=O)[C@](C)(F)[C@@H]1O (single isomer, unassigned) [Unresolved enantiomer 02 of patent compounds in 2013] | 72.6 µL/min/mg | 64.7% | 1.1% | 0.2556 mL/min/kg |  |  | 100% | 0.63% | 0.08% | 0.00% | 0.00% | 9.5 min | % 0 h residual percentage [1]: 100%; % 1 h residual percentage [1]: 82.70%; % 2 h residual percentage [1]: 82.45%; % 6 h residual percentage [1]: 74.80%; % 24 h residual percentage [1]: 41.56%; EC50 (HCV GT1b replicons; Hepatitis C virus, GT1B, 72 h, read-out: EC50 anti-HCV replicon activity, HCV GT1b replicons, 3 days, maximum test concentration 20 μM): 10 to 20 µM; EC50 (HCV GT1b replicons; read-out: EC50 anti-HCV replicon activity, HCV GT1b replicons, 3 days, maximum test concentration 20 μM): 17.7 µM; % 0 min residual percentage (Human plasma stability): 100%; % 10 min residual percentage (Human plasma stability): 73.3%; % 30 min residual percentage (Human plasma stability): 69.5%; % 60 min residual percentage (Human plasma stability): 62.8%; % 120 min residual percentage (Human plasma stability): 58.8%; CC50 at 3 days [5]: > 20 µM
5 | CCOc1ccc2ccc(=O)oc2c1 [7-Ethoxycumarin] | 194.2 µL/min/mg | 103.3% | 0.0% | 0.6835 mL/min/kg |  |  |  |  |  |  |  | 3.6 min | 
6 | O=c1ccc2ccc(O)cc2o1 [7-Hydroxycoumarin] | 7.2 µL/min/mg | 67.4% | 56.2% | 0.0252 mL/min/kg |  |  |  |  |  |  |  | 96.6 min | 
7 | O=C(O)CCCc1ccc(N(CCCl)CCCl)cc1 [Chlorambucil] |  |  |  |  |  |  | 100% | 43.83% | 3.91% | 0.00% | 0.00% |  | 
